Reference: US7256172B1, “Method of treatment and agents useful for same” (The University of Melbourne, priority 1998, dated 2007)
Each block holds one compound with its values, some of them ahead of it. No end group written: not given here.

Legend:
[1] = biological target: PAR1-like receptor ("atypical" thrombin receptor) of human coronary artery endothelial cells (human); assay: cell-based or functional assay
guinea-pig taenia coli = conditions: apamin (100 μM)
Description: 2 cm strips of teania coil with intact Auerbach's plexus, but which had been stripped of the mucosa, were suspended in Kreb's solution under 1 g passive tension, and contracted with histamine (1 μM) to induce active tension.

mouse trachea = conditions: for increase in Isc in presence of indomethacin: cyclooxygenase inhibitor indomethacin; for change in Isc: luminally applied
Excerpt: Mice were killed by a lethal overdose of sodium pentobarbitone and the tracheae rapidly excised. The trachea was opened longitudinally through the ventral cartilage rings to make a fiat sheet. Each sheet of trachea was mounted between two perspex chambers so that the mucosal (luminal) and submucosal and bathed with warmed, oxygenated Krebs' solution, independently on each side. Electrodes in the chambers allowed recordings of transepithelial potential difference using an amplifier. The tissue was voltage clamped at 0 mV by passing a current from the amplifier via another set of electrodes in the chambers. The amount of current required to maintain voltage at 0 mV is defined as the short circuit current (Isc) and is conventionally used as a measure of all ionic fluxes across the preparation.
(§1) After an equilibration time of 30 min, compounds for testing and drugs to elucidate the mechanism of any changes in Isc to the test compounds were added to either side of the tracheal epithelium (ie to either bath). Compounds used for increasing Isc were PGE2, adenosine 5′-triphosphate (ATP), uridine 5′-triphosphate (UTP) and the PAR1-, PAR2- and PAR4-activating peptides, SFLLRN (SEQ ID NO:1) and SLIGRL (SEQ ID NO:2) and GYPGQY (SEQ ID NO:6), respectively. These stimulants were added cumulatively with controls for any time-dependent tachyphylaxis.

mouse bronchial rings = conditions: for response of epithelium-intact bronchi: contracted to approximately 40% Fmax with carbachol; for response in presence of cyclooxygenase inhibitors: indomethacin (3 μM) or aspirin (100 μM)
Excerpt: (§2) The right and left main bronchi and their first order branches of specific pathogenfree (SPF) Balb/c mice (15–20 g; either sex), Hartley tricolour guinea-pigs (300–400 g; male) and Sprague-Dawley rats (200–350 g; either sex), all killed by either cervical dislocation or overdosed (i.p.) with sodium pentobarbitone, were cleared of surrounding connective tissue, nerves and blood vessels under a dissecting microscope and placed in cold, carbogenated (95% v/v O2,5% v/v CO2) Krebs solution (Kemp and Cocks, 1997). Human airway preparations (0.5–1 mm in external diameter) were dissected from lungs of cancer patients undergoing thoracotomy at The Royal Melbourne Hospital, Melbourne, Australia. The epithelium was removed from some bronchi either by mechanical abrasion of the luminal surface (guinea-pig) or by brief, gentle intraliminal flushing of the airways with Krebs containing 0.1% v/v Triton-X100 (mouse and rat). In each case, removal of the epithelium was verified histologically in 8 μm formalin-fixed, paraffin sections stained with haemotoxylin and eosin. Ring segments (approximately 2 mm long) of bronchi and bronchioles were mounted in Krebs (37° C.) on stainless steel wires (40 μm) in dual channel (5 ml) Mulvany-Halpern myographs (JP Trading, Aarhus, Denmark) to record changes in isometric force (Kemp and Cocks, 1997). After equilibration at a passive force between 0.2 g and 0.3 g, tissues were contracted to their maximum levels of active force (Fm.),) with acetylcholine (30 μM), thoroughly washed with Krebs and allowed to return to baseline. Various drugs or their vehicles were then added and 30 min later all tissues were contracted to approximately 40% Fmax with titrated concentrations of carbachol (10–500 nM). The L-type voltage-operated Ca^2+ channel inhibitor, nifedipine (0.3 μM) was added to all mouse and rat tissues after obtaining Fmax to control characteristic phasic contractile activity with carbachol.
If no response occurred the tissues were then exposed to cumulative concentrations of either SLIGRL—NH2 (SEQ ID NO:2) or SFLLRN—NH2 (SEQ ID NO:1) (0.1–30 μM).
(§3) Results are presented as mean±s.e mean and pEC50 (sensitivity) values were calculated by fitting concentration-response curves to a four parameter logistic function (Kemp and Cocks, 1997) using Graphpad Prism (version 2.0). Statistical comparison of mean pEC50 and maximum response (Rmax) values were compared by two-tailed unpaired Student's t-tests or one way analysis of variance (ANOVA) with Tukey-Kramer's t-tests for multiple comparisons. P<0.05 was accepted as significant. Unless specified, all averaged data are from n>5 experiments.
Mouse bronchus preparations were carefully mounted horizontally on fine (40 μm) stainless steel wires attached to the jaws of a Mulvany-Halpem myograph. After 60 min at 37° C., all rings were stretched to 0.5 g passive force, which had been determined in preliminary experiments to be optimal, and allowed to recover from that stretch for a further 30 min. Maximum contraction (Fmax) in each tissue was then determined with exogenously applied acetylcholine (ACh; 30 μM) followed by washout. A further 30 min equilibration time was allowed before the tissues were actively contracted to between 20% and 60% of their individual Fm.” values with titrated concentrations of carbachol (10–100 nM). […] In some cases, tissues were treated with a range of drugs prior to contraction to approximately […] Fmax. These included the cyclooxygenase inhibitors indomethacin and aspirin, the nitric oxide (NO) synthase inhibitor N′-nitro-L-(L-NOARG), the NO scavenger oxyhaemoglobin (Hb0), and the L-voltage-operated Cat' channel inhibitor nifedipine.
After an initial passive stretch to 0.5 g (Ti) and recovery, each ring was contracted with acetylcholine (Ach; 30 μM). The contraction was taken as the tissue maximum and referred to as Fmax.

monkey small bronchi = tested on: monkey small bronchi
Excerpt: The experimental details are similar to those for the mouse isolated bronchi. Briefly, approximately 2 mm long rings of small bronchi were mounted on wire hooks. In each trace, half log concentrations are not depicted for clarity.

[2] = tested on: isolated human bronchioles
Description: Small (500 μm) bronchioles were carefully dissected from discarded sections of human left lung which had been excised at surgery from two male lung cancer patients (Royal Melbourne Hospital, Melbourne, Australia).
Dissection of these bronchioles required a fine-dissecting microscope and an assistant to continually flood the preparation with cold oxygenated Krebs solution to remove air bubbles and keep the tissue viable. Bronchioles approximately 2 mm in length were then mounted on […] diameter stainless wires in a Krebs solution-filled myograph chamber, as described for the mouse bronchus preparation above.

[3] = tested on: human coronary artery rings; conditions: for relaxation after removal of the endothelium: endothelium-denuded; for maximum (Rmax % contraction reversal): endothelium-intact, control
[4] = biological target: guinea-pig protease activated receptor 2 (PAR2), in guinea-pig bronchus tissue (guinea-pig); assay: cell-based or functional assay
[5] = biological target: T1, mouse protease activated receptor 2 (PAR2), in mouse bronchus and trachea tissue (mouse) (UniProt P55086); assay: cell-based or functional assay
T1 sequence (looked up): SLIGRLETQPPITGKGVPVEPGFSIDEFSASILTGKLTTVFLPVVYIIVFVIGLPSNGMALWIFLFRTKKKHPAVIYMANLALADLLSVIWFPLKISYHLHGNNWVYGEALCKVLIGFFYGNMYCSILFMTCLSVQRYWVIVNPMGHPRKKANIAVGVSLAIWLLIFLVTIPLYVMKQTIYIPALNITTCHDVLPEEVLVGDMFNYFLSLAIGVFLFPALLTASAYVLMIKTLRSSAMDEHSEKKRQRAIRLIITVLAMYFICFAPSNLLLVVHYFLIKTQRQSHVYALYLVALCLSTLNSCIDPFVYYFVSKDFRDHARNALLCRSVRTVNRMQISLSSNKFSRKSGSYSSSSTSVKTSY

[6] = biological target: T2, rat protease activated receptor 2 (PAR2), in rat airway tissue (rat) (UniProt Q63645); assay: cell-based or functional assay
T2 sequence (looked up): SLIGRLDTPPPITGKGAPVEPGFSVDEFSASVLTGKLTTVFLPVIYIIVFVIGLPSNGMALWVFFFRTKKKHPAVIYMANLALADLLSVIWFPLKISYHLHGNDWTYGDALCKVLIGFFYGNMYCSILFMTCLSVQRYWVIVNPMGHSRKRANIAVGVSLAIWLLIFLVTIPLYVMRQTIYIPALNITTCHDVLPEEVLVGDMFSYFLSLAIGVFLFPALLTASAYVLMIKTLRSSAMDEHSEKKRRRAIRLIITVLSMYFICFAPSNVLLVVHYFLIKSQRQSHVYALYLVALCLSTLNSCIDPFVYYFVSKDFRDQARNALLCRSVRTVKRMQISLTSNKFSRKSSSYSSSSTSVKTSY

PAR1 = PAR1 (Homo sapiens, UniProt P25116); conditions: concentrations up to 1 mM, human platelets; cited from earlier work
PAR1, sequence (P25116 22-425): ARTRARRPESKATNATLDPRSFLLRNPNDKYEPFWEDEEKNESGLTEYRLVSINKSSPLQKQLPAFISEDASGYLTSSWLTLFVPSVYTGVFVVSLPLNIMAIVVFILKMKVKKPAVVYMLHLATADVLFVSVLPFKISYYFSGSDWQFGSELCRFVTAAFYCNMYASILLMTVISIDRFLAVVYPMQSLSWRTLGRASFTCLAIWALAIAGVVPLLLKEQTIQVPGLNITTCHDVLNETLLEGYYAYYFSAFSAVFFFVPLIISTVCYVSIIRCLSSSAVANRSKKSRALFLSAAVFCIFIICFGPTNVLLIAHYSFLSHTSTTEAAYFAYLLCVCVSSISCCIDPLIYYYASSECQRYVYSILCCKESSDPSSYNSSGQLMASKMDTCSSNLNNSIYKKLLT

[7] = biological target: mouse protease activated receptor 1 (PAR1), in mouse bronchus and trachea tissue (mouse) (UniProt P30558); assay: cell-based or functional assay
mouse protease activated receptor 1 (PAR1), in mouse bronchus and trachea tissue (mouse), sequence (P30558 42-430): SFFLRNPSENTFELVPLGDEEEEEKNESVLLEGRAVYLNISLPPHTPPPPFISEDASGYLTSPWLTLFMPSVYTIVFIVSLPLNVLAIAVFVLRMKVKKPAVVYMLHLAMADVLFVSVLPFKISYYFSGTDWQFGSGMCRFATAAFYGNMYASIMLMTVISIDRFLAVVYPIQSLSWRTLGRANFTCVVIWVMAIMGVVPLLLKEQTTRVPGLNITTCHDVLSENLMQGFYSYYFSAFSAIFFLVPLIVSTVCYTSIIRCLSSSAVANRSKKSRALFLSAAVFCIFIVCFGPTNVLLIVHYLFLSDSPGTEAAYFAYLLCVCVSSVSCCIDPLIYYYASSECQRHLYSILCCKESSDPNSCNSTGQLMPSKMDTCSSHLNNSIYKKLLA

[8] = tested on: human bronchial epithelium; conditions: after amiloride
Description: Human airways were obtained from discarded sections of lungs of patients undergoing lobectomy operations at the Royal Melbourne Hospital, Melbourne, Australia usually for lung cancer. The dissection and set up were as described above for the mouse trachea.
as §1

human distal colon = tested on: human distal colon
Description: Human distal colon strips obtained at bowel resection were suspended at 1 g passive isometric force and contracted with substance P (30 μM) to maintain a steady level of active tension.

rat isolated bronchi = tested on: rat isolated bronchi
Excerpt: as §2
as §3, with “All cumulative responses (relaxations and contractions) were normalised as percentages of the initial level of active force to carbachol. Results” for “Results”

- pEC50 (sensitivity), endothelium-dependent relaxation of U46619-contracted human coronary artery rings [1]: 2.5 log U/ml
Compound: alpha-thrombin (bovine serum, Sigma) (from UniProt P00735 318-625) (enzyme)

Compound: Nc1ncnc2c1ncn2[C@@H]1O[C@H](COP(=O)(O)OP(=O)(O)OP(=O)(O)O)[C@@H](O)[C@H]1O [ATP, adenosine 5′-triphosphate]
- relaxation in presence of apamin (guinea-pig taenia coli): no relaxation
- increase in Isc in presence of indomethacin (mouse trachea): unaffected
- change in Isc (mouse trachea): rapid initial rise in Isc usually followed by some degree of recovery until a steady plateau was reached

Compound: trypsin
- response of epithelium-intact bronchi (mouse bronchial rings): activity-dependent relaxation
- response in presence of cyclooxygenase inhibitors (mouse bronchial rings): blocked by indomethacin
- effect on monkey small bronchi (monkey small bronchi): smooth muscle relaxing effects
- response of human bronchioles [2]: activity dependent relaxation that was reversed by indomethacin
- relaxation after removal of the endothelium [3]: abolished
- maximum (Rmax % contraction reversal) [3]: 88.1±2.9%

- pEC50, epithelium-dependent relaxation of guinea-pig isolated bronchi [4]: 5.4 -log M
- pEC50 (sensitivity), relaxation of carbachol-contracted mouse bronchial rings [5]: 5.6 -log M
- pEC50, relaxation of first generation branches of the mouse main bronchi [5]: 5.1 -log M
- pEC50, epithelium-dependent relaxation of rat isolated bronchi [6]: 5.5 -log M
- pEC50, relaxation of rat bronchioles [6]: 5.1 -log M
Compound: SLIGRL-NH2 (mouse PAR2 tethered ligand sequence, PAR2 activating peptide)

Compound: SLIGKVD-NH2
- activation of PAR1 (PAR1): does not activate PAR1

Compound: prostaglandin E2 [PGE2, reference compound]
- response of epithelium-intact bronchi (mouse bronchial rings): potent and maximum relaxation
- relaxation after removal of the epithelium (mouse bronchial rings; epithelium removed with 0.1% v/v Triton X-100): could still sensitively relax
- maximum relaxation (Rmax) (mouse bronchial rings; main bronchi with epithelium, % of initial force to carbachol): 100%
- sensitivity (pEC50) (mouse bronchial rings; main bronchi with epithelium, contracted with carbachol): 8.2±0.1 −log M
- increase in Isc in presence of indomethacin (mouse trachea): unaffected
- change in Isc (mouse trachea): rapid initial rise in Isc usually followed by some degree of recovery until a steady plateau was reached

- pEC50, relaxation of human coronary artery, untreated tissue [1]: 7 -log M
- pEC50, relaxation of precontracted human coronary artery segments [1]: 6.9 -log M
- pEC50, relaxation of carbachol-contracted mouse bronchial rings [7]: 5.6 -log M
- pEC50, relaxation of first generation branches of the mouse main bronchi [7]: 5.5 -log M
Compound: SFLLRN-NH2 (human PAR1 tethered ligand sequence, thrombin receptor-activating peptide)
- pEC50, relaxation of human coronary artery after desensitisation to thrombin and trypsin [1]: 6.4 -log M

- pEC50 (sensitivity), endothelium-dependent relaxation of U46619-contracted human coronary artery rings [1]: 1.7 log U/ml
Compound: trypsin (bovine pancreas, Worthington Biochem) (from UniProt P00760 24-246) (enzyme)

Compound: SLIGKV-NH2
- change in Isc [8]: relatively poor response
- effect on monkey small bronchi (monkey small bronchi): smooth muscle relaxing effects
- maximum (Rmax % contraction reversal) [3]: 39.9±11.0%

Compound: thrombin
- response of human distal colon (human distal colon): did not result in relaxation
- response of epithelium-intact bronchi (mouse bronchial rings): only poor indomethacin sensitive relaxation at high concentrations
- response in presence of cyclooxygenase inhibitors (mouse bronchial rings): converted to contractions by indomethacin
- effect on monkey small bronchi (monkey small bronchi): smooth muscle relaxing effects
- response of human bronchioles [2]: activity dependent relaxation that was reversed by indomethacin
- response of rat bronchial rings (rat isolated bronchi): small relaxation
- relaxation after removal of the endothelium [3]: abolished
- maximum (Rmax % contraction reversal) [3]: 88.9±4.9%
